Data taken from patent US20170313669A1, “LACTONE COMPOUNDS AND METHODS OF MAKING AND USING SAME” (THE SCRIPPS RESEARCH INSTITUTE, priority 2015, published 2017).

Compared with CCCCCCCCCCCCCC1OC(=O)C1CCCCCC(N)=O (mixture of isomers) [Compound 17, (cis/trans)-6-(2-Oxo-4-tridecyloxetan-3-yl)hexanamide], CCCCCCCCCCCCCC1OC(=O)/C1=C\CCCCCS(N)(=O)=O (centres unmarked) [Compound 16, (Z)-6-(2-Oxo-4-tridecyloxetan-3-ylidene)hexane-1-sulfonamide] is lower in melting point: 98 to 101 °C for the first, 79 to 80 °C for the second.

Compared with CCCCCCCCCCCCCC1OC(=O)/C1=C\c1ccccc1 (centres unmarked) [Compound 3, (Z)-3-benzylidene-4-tridecyloxetan-2-one], CCCCCCCCCCCCCC1OC(=O)/C1=C\CCCCc1ccccc1 (centres unmarked) [Compound 4, (Z)-3-(5-phenylpentylidene)-4-tridecyloxetan-2-one] is lower in melting point: 61 to 62 °C for the first, 34 to 35 °C for the second.

Compound NC(=O)CCCC/C=C1\C(=O)OC1CCCCCCCCCc1ccccc1 (centres unmarked) [Compound 15, (Z)-6-(2-Oxo-4-(9-phenylnonyl)oxetan-3-ylidene)hexanamide] has a melting point of 93 to 94 °C.
